Experimental data as given in patent US20220175701A1, “TREATMENT OF MAJOR DEPRESSIVE DISORDER AND SUICIDAL IDEATIONS THROUGH STIMULATION OF HIPPOCAMPAL NEUROGENESIS UTILIZING PLANT-BASED APPROACHES” (THERAPEUTIC SOLUTIONS INTERNATIONAL, INC., priority 2020, published 2022).
Where two headings read alike, the source gives them in different places.

How the values were obtained:
[1] = cited from earlier work
[2] = test system: BALB/c mice with LPS-induced ARDS; settings: cited from earlier work
[3] = test system: primary peritoneal macrophages; settings: cited from earlier work
[4] = test system: LPS-challenged macrophages; settings: pre-incubated 6 h with SFN 0 to 50 μM, then LPS 24 h; cited from earlier work
[5] = test system: BALB/c mice exposed to random stress; assay: Endogenous neurogenesis in stressed mice, BRDU incorporation assessed by histology; assay type: in vivo; settings: stressed BALB/c mice treated daily; FIG. 1
Protocol: FIG. 1 is a bar graph showing the results of stressed mice that were treated with Fluoxetine or QuadraMune™ daily. Assessment of endogenous neurogenesis was performed by administering BRDU and assessment of incorporation by histology.
BALB/c mice where exposed to random stress 4 times a day by spinning by the tail for 15 seconds. Controls where not stressed. Stressed mice where treated with Prozac or QuadraMune™ daily. Assessment of endogenous neurogenesis was performed by administering BRDU and assessment of incorporation by histology.

[6] = test system: lipopolysaccharide-activated macrophages; settings: cited from earlier work
[7] = test system: rats subjected to myocardial ischemia and reperfusion; settings: EGCG 10 mg/kg intravenously then 10 mg/kg/h infusion; cited from earlier work
macrophage foam cells = settings: cited from earlier work
[8] = test system: mice with experimental colitis; settings: cited from earlier work
apoE(−/−) mice = settings: PT injection; cited from earlier work
[9] = test system: human umbilical vein VECs (HUVECs); settings: cited from earlier work
cancer patients = assay: Pterostilbene (nanostilbene) in cancer patients, NK cell activity and interferon gamma; assay type: in vivo, human; settings: administered in the form of nanostilbene
Text: Additionally, pterostilbene has shown to inhibit inflammatory cytokines associated with ARDS.

[10] = test system: lipopolysaccharide-induced inflammatory reactions; settings: cited from earlier work
[11] = test system: mice challenged with endotoxin (LPS 0111:B4) or live Escherichia coli; settings: cited from earlier work; for concentrations of IL-la: controls 1187.0±278.64
[12] = sulforaphane 50 mg/kg, LPS 5 mg/kg

Compound: Oc1ccc(C=Cc2cc(O)cc(O)c2)cc1 [resveratrol, reference compound]
- bioavailability ([1]; animal studies): 20%

Compound: C[S+]([O-])CCCCN=C=S (stereo not drawn) [sulforaphane, 1-isothiocyanato-4-(methylsulfinyl)-butane]
- serum levels of interleukin-6 (IL-6) and tumor necrosis factor-α (TNF-α) ([2]; ELISA, sulforaphane 50 mg/kg): significantly decreased
- Nrf2/antioxidant response element (ARE) pathway ([2]; pre-treatment): activated
- lactate dehydrogenase (LDH) activity [2, 12]: significantly decreased
- wet-to-dry ratio of the lungs [2, 12]: significantly decreased
- nuclear factor-κB protein expression ([2]; sulforaphane 50 mg/kg): significantly decreased
- prostaglandin E2 (PGE2) production, COX-2 and MMP-9 protein expression, iNOS activity ([2]; sulforaphane 50 mg/kg): significantly inhibited
- HO-1 expression ([3]; LPS-stimulated Nrf2 (+/+) primary peritoneal macrophages): significantly augmented
- anti-inflammatory effect ([3]; Nrf2 (−/−) primary peritoneal macrophages): attenuated
- LPS-stimulated mRNA expression, protein expression and production of TNF-alpha, IL-1beta, COX-2 and iNOS ([3]; pretreatment, Nrf2 (+/+) primary peritoneal macrophages): potently inhibited
- expression of NO and cytokines [4]: able to prevent

Compound: CNCCC(Oc1ccc(C(F)(F)F)cc1)c1ccccc1 (stereo not drawn) [Prozac, Fluoxetine]
- endogenous neurogenesis (BRDU incorporation by histology) [5]: Augmented neurogenesis

Compound: O=C(O[C@@H]1Cc2c(O)cc(O)cc2O[C@@H]1c1cc(O)c(O)c(O)c1)c1cc(O)c(O)c(O)c1 [EGCG, Epigallocatechin Gallate]
- iNOS activity in soluble extracts ([6]; EGCG 5 and 10 microM for 6-24 hr, vs macrophages without EGCG): significantly lower
- NO production ([6]; cells cotreated with EGCG and LPS): Inhibition
- activation of nuclear factor-kappaB ([6]; electrophoretic mobility shift assay): blocked
- myocardial damage and myeloperoxidase activity [7]: reduced
- plasma IL-6 and creatine phosphokinase levels [7]: decreased
- TNF-α-induced nuclear factor-κB (NF-κB) activity (macrophage foam cells): inhibition
- TNF-α-induced downregulation of ABCA1 and decrease in cholesterol efflux to apoA 1 (macrophage foam cells; pretreatment with EGCG): attenuated
- disease activity index (DAI) and spleen index (SI) ([8]; 50 and 100 mg/kg/day EGCG groups vs MD group): decreased
- HIF-1α and STATS protein expression in the colon ([8]; mouse, in vivo): decreasing
- plasma levels of IL-10 and TGF-β1 ([8]; mouse, in vivo): increasing
- release of IL-6 and IL-17 ([8]; mouse, in vivo): reduce

Compound: trans-3,5-dimethoxy-4-hydroxystilbene [pterostilbene]
- number of TUNEL-positive cells in the endothelium of atherosclerotic plaque (apoE(−/−) mice): strongly decreased
- oxLDL-induced cell shrinkage, chromatin condensation, nuclear fragmentation and cell apoptosis ([9]; HUVECs, oxLDL 200 μg/ml): protected against such injuries
- expression of lectin-like oxLDL receptor-1 (LOX-1) ([9]; in vitro and in vivo): inhibited
- bioavailability ([1]; rat, in vivo): 80%
- NK cell activity (cancer patients): increased
- interferon gamma production (cancer patients): increased

Compound: CC1=CC(=O)C(C(C)C)=CC1=O [thymoquinone]
- concentration of nitric oxide [10]: reduced significantly
- concentrations of IL-la ([11]; 0.75 mg/kg thymoquinone dose): 310.8 ± 70.93 pg/mL
- IL-10 levels ([11]; 0.75 mg/kg thymoquinone, controls 5505.2±333.96): 2885.0 ± 553.98 pg/mL
- concentrations of IL-la ([11]; 1 mg/kg group): 428.3 ± 71.32 pg/mL
- levels of TNF-α and IL-2 ([11]; P values=0.1817 and 0.0851): relatively lower levels
- renal and hepatic biomarker profiles ([11]; mouse, in vivo): improved
- reduced mortality ([11]; thymoquinone before endotoxin or E. coli sepsis in mice): 80-90%
